Results as given in US6211250A, “Percutaneous delivery system” (Soltec Research Pty Ltd., priority 1996, dated 2001).
“Also recorded” adds a separate entry of the source.

Key:
[1] = In vitro skin diffusion through shed snake skin in horizontal flow-through diffusion cells; type: in vitro ADME, Children's Python; conditions: result in words
Text: The Children's Python shed snake skin was obtained during natural shedding and the dorsal skin was used. Shed snake skin has shown to be a suitable model membrane for human skin by Itoh, et al., Use of Shed Snake Skin as a Model Membrane for In Vitro Percutaneous Penetration Studies: Comparison with Human Skin Pharm.
Method of Conducting In-Vitro Skin Diffusion Experiments in Horizontal Diffusion Cells
A modified stainless steel flow-through diffusion cell assembly based on that first shown by Cooper in J. Pharm. Sci. 73, 1984, was used to perform the experiments on diffusion of the drugs from various donor compositions through snake skin.
Topical formulations are weighed out onto the skin substrate which has an area of 0.79 cm^2. Active substance penetrates through the skin and into the receptor solution in the bottom section of the cell. Inlet and outlet tubes connected to the receptor chamber maintain skin conditions.
The temperature of the skin was maintained at 32° C.
The receptor solution consisted of 50% propylene glycol in water, made isotonic with 0.9% sodium chloride and preserved with 0.1% sodium azide.
The concentration of applied drug in each diffusion cell sample was measured using high pressure liquid chromatography (HPLC) and absorbance detection. The results reported for each experiment are average values of the replicate diffusion cells. […]

Candida albicans = conditions: result in words
Protocol: The gels and cream were applied to round glass cover slips of 5 cm^2 each. The application rate for all products was 5 mg/cm^2.
After drying, the coated side of the slides were placed on MEA plates which had been previously seeded with a culture of C. albicans. The plates were incubated at 37° C. for 72 hours. The zone of inhibition was measured around the test slides at the end of the incubation period. Furthermore the slides were removed and an assessment of the growth of the test organism was made in the contact zone with the slide. All tests were performed in duplicate.

SMILES	penetration / rate of release of Ketoprofen into the skin (FIG. 3) ([1]; Example 3, varying level of Dermacryl 79)	penetration of ketoprofen (FIG. 5) ([1]; Example 8, different hydrophobic polymers)	activity of clotrimazole in the gel film against C. albicans (Candida albicans)
CC(C(=O)O)c1cccc(C(=O)c2ccccc2)c1 (stereo not drawn) [Ketoprofen, ketoprofen]	the rate of the release of Ketoprofen into the skin of the subject can be varied	can be controlled through the incorporation of hydrophobic polymers	–
Clc1ccccc1C(c1ccccc1)(c1ccccc1)n1ccnc1 [clotrimazole]	–	–	biologically active within the film according to the invention and in fact is more active than the commercial clotrimazole cream; also recorded: could be increased by addition of a plasticiser ie., propylene glycol
